Measurements from patent publication US20040023907A1, “Infection model” (priority 2000, published 2004).
“Also recorded” adds a separate entry of the source.

Key:
[1] = system: candida albicans (virulent strain Sc5314, avirulent strain Can34); assay: Influence of antimycotics on adhesion of candida albicans to in vitro skin and intestinal test systems (co-cultivation, colony count); assay type: cell-based; conditions: for influence on growth rates of the pathogen: co-cultivation with in vitro skin and intestinal test systems in presence of antimycotic; for influence on the adhesion of the pathogen: human in vitro skin and intestinal test systems, submerse culture, antimycotic 0.1, 0.5, 1.0, 2.0 μg/μl, colony count vs samples without antimycotic
From the text: In an especially preferred embodiment, the present invention relates to the co-cultivation of the human-pathological microorganism candida albicans with the human in vitro skin test system or the human in vitro intestinal test system in order to investigate the first stage of the infection process, i.e. the adhesion of the pathogen to the skin or intestinal cells. The adhesion of the pathogen is investigated using the virulent candida strain Sc5314 and the avirulent candida strain Can34 that have already been studied in a mouse macrophage model (Longitudinal et al., Cell, 90 (1997), 939-949). The in vitro skin test system or the in vitro intestinal test system is in each case inoculated in submerse culture with about 10^3 pathogenic organisms and cultivated with shaking. At defined times, for example every 30 minutes (up to a maximum of 4 hours), aliquot amounts are removed and plated out into Petri dishes with appropriate nutrient media, for example YPD full medium (Difco). After an appropriate incubation time, the number of colonies in the Petri dishes is determined. The adhesion of the pathogens on the in vitro organ test systems can be determined based on the comparison between the determined colony count and the originally inoculated number of pathogens.
In a preferred embodiment, the method for investigating the adhesion of candida on the in vitro intestinal test system according to the invention and on the in vitro skin test system according to the invention is modified in such a way that the co-cultivation preparation contains an antimycotic, in particular amphothericin B or fluconazole.
In order to determine the adhesion of the pathogen on cells, 12 each inserts of the human in vitro skin test system held in submerse culture or 12 each inserts of the in vitro intestinal test system held in submerse culture were infected each with 10^3 pathogenic organisms of the virulent candida strain Sc5314 or of the avirulent candida strain Can34 (Longitudinal et al., Cell 90 (1997), […]). The inserts were then incubated with shaking at 37° C. for 30, 60, 90, 120, 150, or 180 min.
At the specified times, the supernatant was removed and plated out in Petri dishes with YPD nutrient medium. After an incubation period of 2 days, the colonies in the Petri dishes were counted. Based on the comparison between the determined colony count and originally inoculated number of pathogens, it was determined that approximately 95% of the virulent strain and 10% of the avirulent strain adhered to the in vitro skin model after 2 hours.
In order to determine the influence of antimycotics on the adhesion of candida albicans on skin and intestinal cells, 12 inserts of the in vitro skin test system held in submerse culture and 12 inserts of the in vitro intestinal test system each were infected with 10^3 pathogenic organisms of the virulent candida strain Sc5314 or the avirulent candida strain Can34. Amphotericin B was added to 5 inserts in a concentration of 0.1, 0.5, 1.0, and 2.0 μg/μl, and fluconazole was added to 5 inserts in a concentration of 0.1, 0.5, 1.0, and 2.0 μg/μl. The inserts were then incubated with shaking at 37° C. for up to 3 days.
After 16, 24, 72, 86, and 98 hours, aliquot amounts were removed and plated out in Petri dishes with YPD nutrient media. After an incubation period of 2 days, the colonies in the Petri dishes were counted.

[2] = system: candida albicans (virulent strain Sc5314, avirulent strain Can34); assay: Influence of antimycotics on penetration/invasion of candida albicans into in vitro skin and intestinal test systems (histology, PAS staining); assay type: cell-based; conditions: human in vitro skin and intestinal test systems, antimycotic 0.1, 0.5, 1.0, 2.0 μg/μl, histology after approximately 18 to 24 hours
From the text: In another particularly preferred embodiment, the present invention relates to the co-cultivation of the human-pathogenic microorganism candida albicans with the human in vitro skin test system prepared according to the invention or with the human in vitro intestinal test prepared according to the invention in order to investigate another stage of the infection process, i.e. the penetration/invasion of the pathogen into cells. For this, the organoid tissue test systems are co-cultivated using the airlift process with the previously described avirulent and virulent pathogen strains. The pathogen is preferably fixed with a cell count of 10^3/ml in 1% agar, and agar pieces with a diameter of 4 mm are placed onto the organoid tissue test systems for up to 98 hours. The penetration of the pathogen into the organoid structures was studied after 16 hours, 24 hours, 72 hours, 86 hours, and 98 hours using histological methods on thin sections, employing the PAS staining method (McManaus, Romeis, 17th ed., page 393). Using the histological sections, the invasion process of the virulent candida strain into the deeper layers of the connective-tissue-like matrix can be documented.
In another preferred embodiment, the method for investigating the penetration/invasion of candida with the in vitro intestinal test system and the in vitro skin test system was modified in such a way that the co-cultivation preparation contained amphothericin B or fluconazole.
In order to determine the penetration of the pathogen, 12 inserts of the in vitro skin system held in airlift culture and 12 inserts of the in vitro intestinal system held in airlift culture each were infected with 10^3 pathogenic organisms of the virulent candida strain Sc5314 or the avirulent candida strain Can34. The inserts then were incubated up to 3 days at 37° C.
The penetration of the pathogen into the organoid structures was investigated after about 18 to 24 hours using histological methods on thin sections, employing the PAS staining method both for the in vitro skin system as well as for the in vitro intestinal system. […]

SMILES	influence on growth rates of the pathogen [1]	influence on the adhesion of the pathogen [1]	invasion (penetration) of the virulent candida strain into the organoid structures [2]	influence on the adhesion of the pathogen ([1]; listed as amphothericin B)	invasion (penetration) of the virulent candida strain into the organoid structures ([2]; listed as amphothericin B)
OC(Cn1cncn1)(Cn1cncn1)c1ccc(F)cc1F [fluconazole]	influenced its growth rates	no influence on the adhesion of the pathogen; also recorded: adhesion of the virulent candida strain could only be prevented by adding amphotericin B and fluconazole and by an inhibition of growth	could only be prevented with a complete inhibition of growth; also recorded: apparently prevents the invasion of the virulent candida strain by inhibiting its growth	–	–
C[C@@H]1[C@H](O)[C@@H](C)/C=C/C=C/C=C/C=C/C=C/C=C/C=C/[C@H](O[C@@H]2O[C@H](C)[C@@H](O)[C@H](N)[C@@H]2O)C[C@@H]2O[C@](O)(C[C@@H](O)C[C@@H](O)[C@H](O)CC[C@@H](O)C[C@@H](O)CC(=O)O[C@H]1C)C[C@H](O)[C@H]2C(=O)O [amphotericin B]	influenced its growth rates	adhesion of the virulent candida strain could only be prevented by adding amphotericin B and fluconazole and by an inhibition of growth	apparently prevents the invasion of the virulent candida strain by inhibiting its growth	no influence on the adhesion of the pathogen	could only be prevented with a complete inhibition of growth
